Assay results from patent US20090172831A1, “Methods for the production of plants resistant to HPPD herbicides” (Syngenta Limited, priority 2000, published 2009).
Several values for one entry are separate records, joined by “and”; a condition that tells them apart may be missing. Equal values may be shown once. Read-outs that look alike come from different tables or passages of the source.

What was measured:
Wheat HPPD = Wheat HPPD (Triticum aestivum, UniProt A0A3B6NLC6); test: Dissociation of enzyme/inhibitor complexes by exchange with 14C-labelled inhibitor (koff; Kd = koff/kon); format: binding
Wheat HPPD, sequence (A0A3B6NLC6 entry or part of it): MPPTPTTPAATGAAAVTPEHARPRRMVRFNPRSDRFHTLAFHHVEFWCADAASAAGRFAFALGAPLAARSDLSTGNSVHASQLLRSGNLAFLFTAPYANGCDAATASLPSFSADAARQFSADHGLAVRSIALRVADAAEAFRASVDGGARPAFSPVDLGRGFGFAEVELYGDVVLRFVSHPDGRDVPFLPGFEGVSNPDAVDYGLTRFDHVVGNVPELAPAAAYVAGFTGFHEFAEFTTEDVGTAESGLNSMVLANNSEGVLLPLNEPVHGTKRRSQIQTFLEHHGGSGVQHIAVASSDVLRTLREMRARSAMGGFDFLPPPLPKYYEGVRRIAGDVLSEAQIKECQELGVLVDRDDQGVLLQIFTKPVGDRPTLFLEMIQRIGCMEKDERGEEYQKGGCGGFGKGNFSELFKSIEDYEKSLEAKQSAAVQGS
Source text: (§1) Herbicidal inhibitors of HPPD are found here to have generally low values of koff (in the range less than 0.0003 s^−1, often less than 0.000001 s^−1). It will be appreciated that many suitable methods known in the art for determining such low koff values are suitable for working the current invention. These include measuring rates of exchange of radio or otherwise labelled inhibitors either with or away from the enzyme inhibitor complex. For example enzyme inhibitor complexes can readily be prepared by incubating HPPD preparations with labelled or unlabelled inhibitor and then, after suitable periods, optionally rapidly separating the thus formed enzyme inhibitor complex from excess inhibitor by any suitable method such as ultrafiltration, binding to filters or exchange down a gel filtration column. Exchange reactions with the, thus prepared enzyme inhibitor complex is then initiated by addition of, as appropriate, excess labelled or unlabelled inhibitor. HPPD preparations suitable for use in the methods of the current invention are relatively unpurified, buffer-exchanged, supernatant fractions of spun crude lysates of E. coli strains engineered to express the HPPD enzyme of interest at a level of, typically, about 0.25-10% of the total soluble protein. Many methods such as radiometric, fluorimetric, NMR, fluorescence depolarisation, EPR, Mossbauer, UV/VIS spectrophotometry etc. or phonon resonance can, in principle, be used to monitor the enzyme/ligand exchange reactions and, particularly in this case where the enzyme contains an iron atom at the ligand binding site. Optionally, the monitoring method may be continuous (as, for example, with scintillation proximity/bead-based methods) or, discontinuous, based upon collection of data at various timepoints wherein samples are removed and the bound and unbound label components rapidly separated and quantitated.
(§2) Values of koff can suitably be calculated by computer fitting based upon is numerical integration of the exchange data along with information on the active-site concentration of HPPD and upon kon values obtained as described below. […] In any event, koff values are always here calculated from the rate of the major slow exchange reaction. It will be appreciated that within the scope of the current invention many methods of making the desired kinetic comparisons are possible without explicit or rigorous determination of off rates but, based upon the same underlying principle, will achieve the same selection result.
The dissociation rates (off rates) of inhibitors selected from Formula 1 and/or 2 and/or 3 and/or 4 from the complexes that they form with test and control HPPD enzymes are suitably measured in a number of ways. Thus, for example, the rates of dissociation of mesotrione, a compound selected from Formula 1 and of the diketonitrile of isoxaflutole, a compound selected from Formula 3 from their respective complexes with, test, wheat HPPD and with, control, Arabidopsis HPPD are compared. The method and results from a typical test are as follows.
^14C mesotrione is of specific activity 1.12 GBq/mmol. This is ˜95% pure radiochemically by TLC and based upon the proportion of material tight-binding to HPPD. Arabidopsis and, (test), wheat HPPD are each diluted to a concentration of ˜0.45 and 0.54 μM, respectively into 1.6 ml of 50 mM Bis-Tris propane buffer at pH 7.0 containing 25% glycerol, 25 mM sodium ascorbate and 3 mg/l of bovine catalase (Sigma C3155˜50,000 units/mg) containing […] ^14C mesotrione and left to react at 25 C for 2.5-3 h. Following this initial binding reaction, exchange reactions are initiated by addition of cold mesotrione to a final concentration of 60 μM and 200 μl aliquots removed at various times to rapid chromatography down a NAP5 gel filtration column equilibrated in 50 mM BTP at pH 7 containing 0.1 M KCl, separation into fractions containing protein-bound or free radiolabel and liquid scintillation counting. […]

P. fluorescens HPPD = P. fluorescens HPPD (Pseudomonas fluorescens, UniProt A0ACG8AE61); test: as above; format: binding
P. fluorescens HPPD, sequence (A0ACG8AE61 entry or part of it): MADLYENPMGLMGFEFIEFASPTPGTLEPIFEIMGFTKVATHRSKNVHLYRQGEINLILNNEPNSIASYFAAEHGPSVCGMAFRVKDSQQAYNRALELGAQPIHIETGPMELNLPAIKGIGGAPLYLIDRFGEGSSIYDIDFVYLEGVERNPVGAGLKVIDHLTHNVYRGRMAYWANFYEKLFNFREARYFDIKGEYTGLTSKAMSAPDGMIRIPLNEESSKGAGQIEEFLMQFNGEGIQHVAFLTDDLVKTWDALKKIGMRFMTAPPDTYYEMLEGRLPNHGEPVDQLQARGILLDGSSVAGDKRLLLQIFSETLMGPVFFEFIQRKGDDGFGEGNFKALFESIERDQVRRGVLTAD
Source text: as §1
as §2, with “result. […]” for “result.”
Not all test inhibitors are readily available in a radiolabelled form. A more general method of measuring off rates is to first form the complex with unlabelled test inhibitor, to rapidly exchange the complex free of excess unlabelled inhibitor and to then start the exchange reaction by addition of an excess of a standard labelled inhibitor, the kinetic properties of which are already known. The reaction is then monitored and the relative proportions of bound and unbound label determined at various times. […] The latter is the method of choice when the rate of exchange is fast (t½<3 h).
In, variants of the above methods, off rates are measured either in the presence or absence of ˜25% v/v glycerol. In the presence of glycerol values obtained are generally ˜1.5-3× slower than in its absence although sometimes the change is outside this range or, even, in the other direction. Further examples of data obtained are depicted in the following Table 3.
Crude Extracts of recombinant E. coli strains expressing, in the one case, a control HPPD (from Arabidopsis) and, in the other, one or more test HPPD sequences are prepared as described in the preceding example. The titre of active sites and enzyme activity are also defined and measured as described in the preceding examples. […]

[1] = Kd, value obtained + glycerol (in parentheses)
[2] = Kd, without glycerol, Kd = koff/kon
[3] = dissociation constant (Kd), in water at pH 7.0 and at 25 C

In the case of CS(=O)(=O)c1ccc(C(=O)C2C(=O)CCCC2=O)c([N+](=O)[O-])c1 [Structure I, 2-(Nitro-4-methanesulphonylbenzoyl)-cyclohexane-1,3-dione, reference compound], the Kd (Wheat HPPD; [1]) is reported as 6.33 nM, the Kd (Wheat HPPD; [2]) is reported as 7.41 nM and the Kd (Wheat HPPD; [3]) is reported as 6.5 to 7.5 nM. It also gave a Kd (P. fluorescens HPPD; [1]) of 0.2 nM and a Kd (P. fluorescens HPPD; [2]) of 0.114 nM.

For Cc1nc(C(F)(F)F)ccc1C(=O)C1C(=O)C2CCC(C2)C1=O (centres unmarked) [Structure II], the “ratio Kd2/Kd4, structure II to structure VII” value (Wheat HPPD) was 38, the “ratio koff2/koff4, structure II to structure VII” value (Wheat HPPD) was 30 and 42 and the Kd (Wheat HPPD; [2]) was 6.73 nM. The Kd (Wheat HPPD; [3]) was 6.5 to 7.5 nM, the koff (Wheat HPPD; in water at pH 7.0 and at 25 C, values of Table 3 restated) was 0.00035 s⁻¹ and the koff (Wheat HPPD; pH 7, in water at pH 7.0 and at 25 C, values of Table 3 restated) was 0.00025 s⁻¹. For the same molecule, the koff (Wheat HPPD; − glycerol) was 0.00025 s⁻¹ and 0.00035 s⁻¹, the Kd (P. fluorescens HPPD; without glycerol, Kd = koff/kon, read-out: Kd) was 2.17 nM and the koff (P. fluorescens HPPD; − glycerol) was 5e-05 s⁻¹.
